Test results taken from US10745741B2, “Cell barcoding in microfluidics” (EUROPEAN MOLECULAR BIOLOGY LABORATORY, priority 2015, dated 2020).

What was measured:
p21 = p21 expression by qPCR on barcoded mRNA from drug-treated MCF-7 cells in droplets; format: cell-based; conditions: 12 h at 37° C., barcode 2B, qPCR (FIG. 8A)
From the text: (§1) Barcoding cellular mRNA according to particular drug treatments. The combinatorial microfluidic chip was used to generate droplets containing the following components: • MCF-7 cells+media+ligation mix+barcode fragment BC-1+barcode fragment BC-A+Thiostrepton • MCF-7 cells+media+ligation mix+barcode fragment BC-2+barcode fragment BC-B+Doxorubicin treated cells • MCF-7 cells+media+ligation mix+barcode fragment BC-1+barcode fragment BC-B The resulting emulsions were collected separately in droplet traps (as shown in Hu H et al., Lab Chip 2015) for 12 h at 37° C., before cell lysis was achieved by repeated freezing and thawing. Then the emulsion was broken and hybridized cellular mRNA was purified using streptaviding-coated beads. This step ensures that only mRNA hybridized to ligated barcode combinations (e.g. 1A for the Thiostrepton sample) is isolated. Subsequently reverse transcription was carried out and the abundance of target genes was assessed by qPCR using primers specific for the target genes. Barcode fragment combination is shown exemplary for fragments BC-A and BC-1 in FIG. 7, as well as the reverse transcription and qPCR using the barcode. Expression levels of p21 (FIG. 8A) and FoxM1 (FIG. 8B) were normalized to Actb expression and the fold change in expression was determined between treated and untreated cells.

FoxM1 = FoxM1 expression by qPCR on barcoded mRNA from drug-treated MCF-7 cells in droplets; format: cell-based; conditions: 12 h at 37° C., barcode combination 1A, qPCR (FIG. 8B)
From the text: as §1

SMILES	p21 expression normalized to Actb expression, fold change between treated and untreated cells (p21)	FoxM1 expression normalized to Actb expression, fold change between treated and untreated cells (FoxM1)
COc1cccc2c1C(=O)c1c(O)c3c(c(O)c1C2=O)C[C@@](O)(C(=O)CO)C[C@@H]3O[C@H]1C[C@H](N)[C@H](O)[C@H](C)O1 [Doxorubicin]	significant upregulation	
C=C(NC(=O)C(=C)NC(=O)c1csc(C2=N[C@@H]3c4csc(n4)[C@H]4NC(=O)c5csc(n5)[C@H]([C@](C)(O)[C@@H](C)O)NC(=O)[C@H]5CSC(=N5)/C(=C/C)NC(=O)[C@H]([C@@H](C)O)NC(=O)c5csc(n5)[C@]3(CC2)NC(=O)[C@H](C)NC(=O)C(=C)NC(=O)[C@H](C)NC(=O)[C@H]([C@@H](C)CC)N[C@@H]2C=Cc3c([C@H](C)O)cc(nc3[C@H]2O)C(=O)O[C@@H]4C)n1)C(N)=O [Thiostrepton]		significant downregulation
